Literature values, collected in patent US4477441A, “Renin inhibitors containing a C-terminal disulfide cycle” (Merck & Co., Inc., priority 1983, dated 1984).

Test system: hog renin
Conditions: nephrectomized rats after injection of hog renin; Gross et al. 1971

Pepstatin
blood pressure in vivo: reduce blood pressure in vivo
